Data: PubChem BioAssay AID248 (DTP/NCI, 2004)
Several values for one entry are separate records, joined by “and”; a condition that tells them apart may be missing. Equal entries are not always repeated. Inconclusive results and toxic doses are left out. Rule as the data show it: active = T/C of 150% or more; inactive = T/C below 125%.

Test system: L1210 leukemia ip in BDF1 mice, survival T/C
Experiment: NCI In Vivo Anticancer Drug Screen. Data for tumor model L1210 Leukemia (intraperitoneal) in B6D2F1 (BDF1) mice
Settings: endpoint: mean survival time, higher = longer survival
Procedure, shortened: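 Transplanted-tumor mice were given test agent; controls received vehicle only. Survival readings from the two groups were divided (treated over control).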

[1] = dose: 50.0 mg/kg/injection, schedule: Q01DX009 (ip), vehicle: saline with Tween-80
[2] = dose: 100.0 mg/kg/injection, schedule: Q01DX009 (ip), vehicle: saline with Tween-80
[3] = dose: 200.0 mg/kg/injection, schedule: Q01DX009 (ip), vehicle: saline with Tween-80
[4] = dose: 100.0 mg/kg/injection, schedule: Q04DX002 (ip), vehicle: saline with Tween-80
[5] = dose: 50.0 mg/kg/injection, schedule: Q01DX009 (ip), vehicle: Klucel (hydroxypropylcellulose) (HPC)
[6] = dose: 50.0 mg/kg/injection, schedule: Q04DX003 (ip), vehicle: Klucel (hydroxypropylcellulose) (HPC)
[7] = dose: 100.0 mg/kg/injection, schedule: Q01DX009 (ip), vehicle: Klucel (hydroxypropylcellulose) (HPC)
[8] = dose: 100.0 mg/kg/injection, schedule: Q04DX003 (ip), vehicle: Klucel (hydroxypropylcellulose) (HPC)
[9] = dose: 200.0 mg/kg/injection, schedule: Q04DX003 (ip), vehicle: Klucel (hydroxypropylcellulose) (HPC)
[10] = dose: 100.0 mg/kg/injection, schedule: Q04DX003 (ip), vehicle: saline
[11] = dose: 200.0 mg/kg/injection, schedule: Q04DX003 (ip), vehicle: saline
[12] = dose: 100.0 mg/kg/injection, schedule: Q01DX001 (ip), vehicle: saline
[13] = dose: 200.0 mg/kg/injection, schedule: Q01DX001 (ip), vehicle: saline
[14] = dose: 400.0 mg/kg/injection, schedule: Q01DX001 (ip), vehicle: saline
[15] = dose: 200.0 mg/kg/injection, schedule: Q01DX009 (ip), vehicle: Klucel (hydroxypropylcellulose) (HPC)
[16] = dose: 100.0 mg/kg/injection, schedule: Q04DX003 (ip), vehicle: saline with Tween-80
[17] = dose: 200.0 mg/kg/injection, schedule: Q04DX003 (ip), vehicle: saline with Tween-80
[18] = dose: 400.0 mg/kg/injection, schedule: Q04DX003 (ip), vehicle: saline with Tween-80
[19] = dose: 400.0 mg/kg/injection, schedule: Q04DX003 (ip), vehicle: Klucel (hydroxypropylcellulose) (HPC)

Measured: T/C

[O-]/[N+](=N\O)c1ccc(/[N+]([O-])=N\O)cc1
inactive: dose: 12.5 mg/kg/injection, schedule: Q01DX009 (ip), vehicle: saline with Tween-80 88 % of control | dose: 25.0 mg/kg/injection, schedule: Q01DX009 (ip), vehicle: saline with Tween-80 88 % of control | [1] 97 % of control and 107 % of control and 91 % of control | dose: 100.0 mg/kg/injection, schedule: Q01DX001 (ip), vehicle: saline with Tween-80 95 % of control | [2] 102 % of control | dose: 200.0 mg/kg/injection, schedule: Q01DX001 (ip), vehicle: saline with Tween-80 98 % of control | [3] 87 % of control

Cc1cc(C)c(-c2cc(C(O)C3OC4OC(C)(C)OC4C4OC(C)(C)OC34)on2)c(C)c1 (configuration not stated)
inactive: [4] 97 % of control | dose: 200.0 mg/kg/injection, schedule: Q04DX002 (ip), vehicle: saline with Tween-80 87 % of control | dose: 400.0 mg/kg/injection, schedule: Q04DX002 (ip), vehicle: saline with Tween-80 87 % of control

CC(C)=C1C2CCC1C1C(=O)OC(=O)C21 (configuration not stated)
inactive: [5] 95 % of control | [6] 102 % of control | dose: 100.0 mg/kg/injection, schedule: Q01DX001 (ip), vehicle: Klucel (hydroxypropylcellulose) (HPC) 98 % of control | [7] 88 % of control | [8] 102 % of control | dose: 200.0 mg/kg/injection, schedule: Q01DX001 (ip), vehicle: Klucel (hydroxypropylcellulose) (HPC) 105 % of control | [9] 100 % of control

Cc1ccc(C)c2c1CC(C(=O)O)CC2C (configuration not stated)
inactive: [10] 93 % of control | [11] 110 % of control

CC(C)CCCC(C)C1CCC2C3CCC4=CC5(CCC4(C)C3CCC12C)SCCS5 (configuration not stated)
inactive: [1] 98 % of control | [2] 101 % of control | [3] 95 % of control

[O-]/[N+](=C\c1cccc(O)c1)c1ccccc1
inactive: dose: 50.0 mg/kg/injection, schedule: Q01DX001 (ip), vehicle: saline 102 % of control | [12] 106 % of control | [13] 102 % of control | [14] 100 % of control

COc1ccc2c(c1)CC[C@@H]1[C@@H]2CC[C@@]2(C)[C@H]1CC[C@@]2(O)C(F)=C(F)F
inactive: dose: 38.0 mg/kg/injection, schedule: Q01DX015 (sc), vehicle: steriod suspending solution 96 % of control | [5] 116 % of control | dose: 75.0 mg/kg/injection, schedule: Q01DX015 (sc), vehicle: steriod suspending solution 88 % of control | dose: 100.0 mg/kg/injection, schedule: Q01DX001 (sc), vehicle: steriod suspending solution 92 % of control | [7] 107 % of control | dose: 150.0 mg/kg/injection, schedule: Q01DX015 (sc), vehicle: steriod suspending solution 94 % of control | dose: 200.0 mg/kg/injection, schedule: Q01DX001 (sc), vehicle: steriod suspending solution 100 % of control | [15] 100 % of control | dose: 300.0 mg/kg/injection, schedule: Q01DX009 (ip), vehicle: Klucel (hydroxypropylcellulose) (HPC) 104 % of control | dose: 300.0 mg/kg/injection, schedule: Q01DX015 (sc), vehicle: steriod suspending solution 94 % of control | dose: 400.0 mg/kg/injection, schedule: Q01DX001 (sc), vehicle: steriod suspending solution 97 % of control | dose: 600.0 mg/kg/injection, schedule: Q01DX015 (sc), vehicle: steriod suspending solution 94 % of control

Nc1ccc(Cl)cc1-c1nc2ccccc2[nH]1
inactive: [16] 91 % of control | [17] 95 % of control | [18] 91 % of control

C/C(=N\NC(=S)Nc1cc(I)ccc1C)c1cc([N+](=O)[O-])c(O)cc1O
inactive: dose: 12.5 mg/kg/injection, schedule: Q04DX002 (ip), vehicle: Klucel (hydroxypropylcellulose) (HPC) 102 % of control | dose: 25.0 mg/kg/injection, schedule: Q04DX002 (ip), vehicle: Klucel (hydroxypropylcellulose) (HPC) 97 % of control | dose: 50.0 mg/kg/injection, schedule: Q04DX002 (ip), vehicle: Klucel (hydroxypropylcellulose) (HPC) 105 % of control

O=C1c2ccccc2C(=O)c2c1ccc1c(S(=O)(=O)Cl)cccc21
inactive: dose: 100.0 mg/kg/injection, schedule: Q04DX002 (ip), vehicle: saline 122 % of control | dose: 200.0 mg/kg/injection, schedule: Q04DX002 (ip), vehicle: saline 97 % of control | dose: 400.0 mg/kg/injection, schedule: Q04DX002 (ip), vehicle: saline 94 % of control

O=C1C(C(O)c2ccccc2)SC(c2ccccc2)N1c1ccccc1 (configuration not stated)
inactive: [7] 97 % of control | [8] 90 % of control | [15] 101 % of control | [9] 94 % of control | dose: 400.0 mg/kg/injection, schedule: Q01DX009 (ip), vehicle: Klucel (hydroxypropylcellulose) (HPC) 95 % of control | [19] 93 % of control

CCOC(=O)C[P+](c1ccc(C)cc1)(c1ccc(C)cc1)c1ccc(C)cc1
inactive: dose: 15.0 mg/kg/injection, schedule: Q01DX001 (ip), vehicle: carboxymethylcellulose (CMC) 86 % of control

O=C(O)CCC(=O)c1cc2ccccc2s1
inactive: [8] 92 % of control | [9] 99 % of control | [19] 99 % of control

c1ccc2cc(CCc3cc4ccccc4cn3)ncc2c1
inactive: [10] 105 % of control | [11] 94 % of control | dose: 400.0 mg/kg/injection, schedule: Q04DX003 (ip), vehicle: saline 87 % of control

COC(OC)c1[nH]c(=S)[nH]c(=O)c1Cc1ccc(C)c(C)c1
inactive: [2] 104 % of control | [16] 94 % of control | [3] 96 % of control | [17] 96 % of control | dose: 400.0 mg/kg/injection, schedule: Q01DX009 (ip), vehicle: saline with Tween-80 87 % of control | [18] 100 % of control

O=C(O)c1cc(Br)cc(Cl)c1Cl
inactive: dose: 100.0 mg/kg/injection, schedule: Q04DX002 (ip), vehicle: Klucel (hydroxypropylcellulose) (HPC) 100 % of control | dose: 200.0 mg/kg/injection, schedule: Q04DX002 (ip), vehicle: Klucel (hydroxypropylcellulose) (HPC) 103 % of control

Nc1nnnc2nc[nH]c12
inactive: dose: 12.5 mg/kg/injection, schedule: Q01DX Z (ip), vehicle: carboxymethylcellulose (CMC) 100 % of control | dose: 25.0 mg/kg/injection, schedule: Q01DX Z (ip), vehicle: carboxymethylcellulose (CMC) 93 % of control

CCCCC(CC)COc1ccc(N=C(N)N=C(N)N)cc1 (configuration not stated)
inactive: [4] 105 % of control

Fc1cccc2ccccc12
inactive: [2] 105 % of control | [3] 87 % of control

CCN(CC)CCCC#CCN1CCCCC1
inactive: dose: 25.0 mg/kg/injection, schedule: Q01DX009 (ip), vehicle: Klucel (hydroxypropylcellulose) (HPC) 100 % of control | dose: 25.0 mg/kg/injection, schedule: Q04DX003 (ip), vehicle: Klucel (hydroxypropylcellulose) (HPC) 103 % of control | [5] 101 % of control | [6] 106 % of control | [7] 102 % of control | [8] 103 % of control

COc1ncc(F)c(OC)n1
inactive: [12] 100 % of control | [13] 96 % of control | [14] 91 % of control

O=S(=O)(Oc1ccc(Br)cc1)C1CC1c1ccccc1 (configuration not stated)
inactive: [12] 106 % of control | [13] 98 % of control | [14] 103 % of control

CCOP(=O)(OC(C)CC)OC(C)CC (configuration not stated)
inactive: dose: 100.0 mg/kg/injection, schedule: Q04DX003 (ip), vehicle: carboxymethylcellulose (CMC) 93 % of control | dose: 200.0 mg/kg/injection, schedule: Q04DX003 (ip), vehicle: carboxymethylcellulose (CMC) 87 % of control
